From patent US12084485B2 (Intarcia Therapeutics, Inc., priority 2020, dated 2024)
Where two headings read alike, the source gives them in different places.

What was measured:
[1] = Body weight changes in LE rats after bolus SC dosing; assay type: in vivo, rat; details: 30 mcg/kg SC bolus
[2] = Acute food intake inhibition in Long Evans rats after bolus SC dosing (BioDAQ); assay type: in vivo, rat; details: 30 mcg SC bolus
[3] = Weight-loss efficacy in LE DIO rats after bolus SC dosing; assay type: in vivo, rat; details: male LE DIO rats, from baseline and vehicle control (ΔΔ %)
[4] = Body composition in male ZDF rats; assay type: in vivo, rat; details: day 25
[5] = Body composition (quantitative magnetic resonance) in male LE DIO rats; assay type: in vivo, rat; details: day 26
HbA1c = assay: Comparative in vivo HbA1c lowering potency, A120 vs semaglutide (28 days); parameters: species or system rat
[6] = Comparative in vivo weight loss potency, A120 vs semaglutide, DIO rats (28 days); parameters: species or system rat
[7] = Solubility in saline or DI water at room temperature (visual inspection); assay type: physicochemical; details: room temperature, as TFA salt unless indicated otherwise
[8] = Stability in DMSO or DI water at 37° C. (purity by LC/MS and HPLC); assay type: physicochemical
[9] = cited from earlier work
[10] = ΔΔ % change in HbA1c in ZDF rat at day 27
[11] = ΔΔ % weight decrease in DIO rat at day 27
[12] = solute Saline, TFA salt unless indicated otherwise

With CC[C@H](C)[C@@H]1NC(=O)[C@H](Cc2ccccc2)NC(=O)[C@H](CCCCN)NC(=O)[C@@H](NC(=O)[C@@H](NC(=O)[C@H](C)NC(=O)[C@H](CCC(=O)O)NC(=O)[C@H](CCCCNC(=O)CC[C@H](NC(=O)CC[C@H](NC(=O)COCCOCCNC(=O)CCCCCCCCCCCCCCCCCCC(=O)O)C(=O)O)C(=O)O)NC(=O)[C@H](CCC(=O)O)NC(=O)[C@H](Cc2ccc(O)cc2)NC(=O)[C@H](CCC(N)=O)NC(=O)[C@H](CCCCN)NC(=O)[C@H](CO)NC(=O)[C@@H](NC(=O)[C@H](CC(=O)O)NC(=O)[C@H](CO)NC(=O)[C@@H](NC(=O)[C@H](Cc2ccccc2)NC(=O)[C@@H](NC(=O)CNC(=O)[C@H](CCC(=O)O)NC(=O)C(C)(C)NC(=O)[C@@H](N)Cc2c[nH]cn2)[C@@H](C)O)[C@@H](C)O)C(C)C)C(C)C)CCCCNC(=O)CC[C@@H](C(=O)N[C@@H](Cc2c[nH]c3ccccc23)C(=O)N[C@@H](CC(C)C)C(=O)N[C@@H](CCCCN)C(=O)N[C@@H](CC(N)=O)C(=O)NCC(=O)NCC(=O)N2CCC[C@H]2C(=O)N[C@@H](CO)C(=O)N[C@@H](CO)C(=O)NCC(=O)N[C@@H](C)C(=O)N2CCC[C@H]2C(=O)N2CCC[C@H]2C(=O)N2CCC[C@H]2C(=O)N[C@@H](CO)C(N)=O)NC1=O [Compound A135] the “% Weight change from Vehicle, 1 d” value [1] was −4.3%, the “% Weight change from Vehicle, 2 d” value [1] was −7.4% and the “% Weight change from Vehicle, 3 d” value [1] was −6.4%. For the same compound, the “% Weight change from Vehicle, 4 d” value [1] was −4.2%, the “% Food Intake Inhibition from Vehicle, 0-24 hr” value [2] was −52.6% and the “% Food Intake Inhibition from Vehicle, 25-48 hr” value [2] was −62.2%. For the same compound, the “% Food Intake Inhibition from Vehicle, 49-72 hr” value [2] was −29.4%, the “% Food Intake Inhibition from Vehicle, 73-96 hr” value [2] was −8.0% and the “DIO Weight Loss (30 mcg/kg SC bolus) % Weight change from Vehicle 2 d” value [3] was −3.7%. The “DIO Weight Loss (30 mcg/kg SC bolus) % Weight change from Vehicle 3 d” value [3] was −4.8% and the “DIO Weight Loss (30 mcg/kg SC bolus) % Weight change from Vehicle 4 d” value [3] was −4.3%.
In the case of semaglutide, the “changes in body composition” value [4] is reported as “primarily due to fat mass loss”, the “changes in body composition” value [5] is reported as “primarily due to fat mass loss” and the “% Change HbA1c EC50” value (HbA1c; [10]) is reported as 6 ng/mL. For the same compound, the “% Change HbA1c ED50” value (HbA1c; [10]) was 36 µg/kg/day, the “% Change HbA1c at 300 mcg/kg/day dose” value (HbA1c; ΔΔ % change in HbA1c in ZDF rat at day 27, 300 mcg/kg/day) was 4.8% and the “% Weight loss EC50” value [6, 11] was 3.9 ng/mL. The “% Weight loss ED50” value [6, 11] was 23 µg/kg/day and the “% Weight loss at 300 mcg/kg/day dose” value ([6]; ΔΔ % weight decrease in DIO rat at day 27, 300 mcg/kg/day) was 24%.
With CC[C@H](C)[C@@H]1NC(=O)[C@H](Cc2ccccc2)NC(=O)[C@H](CCCCN)NC(=O)[C@@H](NC(=O)[C@H](C)NC(=O)[C@H](C)NC(=O)[C@H](CCC(=O)O)NC(=O)[C@H](CCCCNC(=O)CC[C@H](NC(=O)CC[C@H](NC(=O)COCCOCCNC(=O)CCCCCCCCCCCCCCCCCCC(=O)O)C(=O)O)C(=O)O)NC(=O)[C@H](CCC(=O)O)NC(=O)[C@H](Cc2ccc(O)cc2)NC(=O)[C@H](CCC(N)=O)NC(=O)[C@H](CCCCN)NC(=O)[C@H](CO)NC(=O)[C@@H](NC(=O)[C@H](CC(=O)O)NC(=O)[C@H](CO)NC(=O)[C@@H](NC(=O)[C@H](Cc2ccccc2)NC(=O)[C@@H](NC(=O)CNC(=O)[C@H](CCC(=O)O)NC(=O)C(C)(C)NC(=O)[C@@H](N)Cc2c[nH]cn2)[C@@H](C)O)[C@@H](C)O)C(C)C)CCCCNC(=O)CC[C@@H](C(=O)N[C@@H](Cc2c[nH]c3ccccc23)C(=O)N[C@@H](CC(C)C)C(=O)N[C@@H](CCCCN)C(=O)N[C@@H](CC(N)=O)C(=O)NCC(=O)NCC(=O)N2CCC[C@H]2C(=O)N[C@@H](CO)C(=O)N[C@@H](CO)C(=O)NCC(=O)N[C@@H](C)C(=O)N2CCC[C@H]2C(=O)N2CCC[C@H]2C(=O)N2CCC[C@H]2C(=O)N[C@@H](CO)C(N)=O)NC1=O [Compound A137] the “% Weight change from Vehicle, 1 d” value [1] was −4.7%, the “% Weight change from Vehicle, 2 d” value [1] was −6.6% and the “% Weight change from Vehicle, 3 d” value [1] was −6.0%. The “% Weight change from Vehicle, 4 d” value [1] was −4.8%, the “% Food Intake Inhibition from Vehicle, 0-24 hr” value [2] was −67.0% and the “% Food Intake Inhibition from Vehicle, 25-48 hr” value [2] was −69.0%. For the same compound, the “% Food Intake Inhibition from Vehicle, 49-72 hr” value [2] was −25.7%, the “% Food Intake Inhibition from Vehicle, 73-96 hr” value [2] was −14.7% and the “DIO Weight Loss (30 mcg/kg SC bolus) % Weight change from Vehicle 2 d” value [3] was −3.0%. The “DIO Weight Loss (30 mcg/kg SC bolus) % Weight change from Vehicle 3 d” value [3] was −2.9% and the “DIO Weight Loss (30 mcg/kg SC bolus) % Weight change from Vehicle 4 d” value [3] was −2.7%.
For CC[C@H](C)[C@H](NC(=O)[C@H](Cc1ccccc1)NC(=O)[C@H](CC(C)C)NC(=O)[C@H](CCCNC(=N)N)NC(=O)[C@@H](NC(=O)[C@H](C)NC(=O)[C@H](CCC(=O)O)NC(=O)[C@H](CCCCNC(=O)CC[C@H](NC(=O)COCCOCCNC(=O)CCCCCCCCCCCCCCCCCCC(=O)O)C(=O)O)NC(=O)[C@H](CCC(=O)O)NC(=O)[C@H](Cc1ccc(O)cc1)NC(=O)[C@H](CCC(N)=O)NC(=O)[C@H](CCCCN)NC(=O)[C@H](CO)NC(=O)[C@H](CC(C)C)NC(=O)[C@H](CC(=O)O)NC(=O)[C@H](CCC(=O)O)NC(=O)[C@@H](NC(=O)[C@H](Cc1ccccc1)NC(=O)[C@@H](NC(=O)CNC(=O)[C@H](CCC(=O)O)NC(=O)C(C)(C)NC(=O)[C@@H](N)Cc1c[nH]cn1)[C@@H](C)O)[C@@H](C)O)C(C)C)C(=O)N[C@@H](CO)C(=O)N[C@@H](Cc1c[nH]c2ccccc12)C(=O)N[C@@H](CC(C)C)C(=O)N[C@@H](CCCCN)C(=O)N[C@@H](CC(N)=O)C(=O)NCC(=O)NCC(=O)N1CCC[C@H]1C(=O)N[C@@H](CO)C(=O)N[C@@H](CO)C(=O)NCC(=O)N[C@@H](C)C(=O)N1CCC[C@H]1C(=O)N1CCC[C@H]1C(=O)N1CCC[C@H]1C(=O)N[C@@H](CO)C(N)=O [Compound A162], the solubility ([7]; DI water, read-out: Solubility (mg/mL) in DI water) was over 101 mg/mL, the solubility ([7]; saline, read-out: Solubility (mg/mL) in saline) was over 101 mg/mL and the “Stability @ 37° C. (% purity) Day 14” value ([8]; solute DI H2O, 37° C., TFA salt unless indicated otherwise) was 96.6%. The “Stability @ RT (% purity) Day 0” value ([8]; solute DI H2O, TFA salt unless indicated otherwise, 1 mg/ml) was 95.8%, the “Stability @ RT (% purity) Day 14” value ([8]; solute DI H2O, TFA salt unless indicated otherwise) was 94.7% and the “Stability @ RT (% purity) Day 28” value ([8]; solute DI H2O, Day 28, TFA salt unless indicated otherwise) was 94.5%. The “Stability @ 37° C. (% purity) Day 14” value ([8]; solute Saline, 37° C., TFA salt unless indicated otherwise) was 96.7%, the “Appearance of stability sample (cloudy / particulates)” value ([8]; solute Saline, 37° C., Day 28) was “(c)” and the “Stability @ 37° C. (% purity) Day 28” value ([8]; solute Saline, 37° C., Day 28, TFA salt unless indicated otherwise) was 85.5%. The “Stability @ RT (% purity) Day 0” value [8, 12] was 97.9%, the “Stability @ RT (% purity) Day 14” value [8, 12] was 93.7% and the “Stability @ RT (% purity) Day 28” value ([8]; solute Saline, Day 28, TFA salt unless indicated otherwise) was 94.9%.
For “human amylin: 37-residue polypeptide hormone co-secreted with insulin from pancreatic β-cells”, the half-life in serum [9] is given as “about 13 minutes”.
